Article PMC7459852, “Identification of 6-(piperazin-1-yl)-1,3,5-triazine as a chemical scaffold with broad anti-schistosomal activities” (Wellcome Open Research, 2020)
Where two headings read alike, the source gives them in different places.

Columns and labels:
[1] = MTT cytotoxicity assay on HepG2 cells; format: cell-based, Human; conditions: human, HepG2 cells, MTT, 24 h; three dose response titrations (200 - 1 µM)
Method: (§1) Compound cytotoxicity on Human Hepatocyte Carcinoma (HepG2) cells (85011430, Sigma Aldrich) was elucidated by the MTT (3-(4,5-dimethylthiazol-2-yl)-2,5-diphenyltetrazolium bromide) tetrazolium reduction assay as previously described, [28], [50]. Briefly, HepG2 cells were seeded at a density of 20,000 per well in 96-well black, clear bottom falcon plate in modified BME medium (50 μl; containing 1% antibiotic/mycotic (Sigma-Aldrich, Gillingham, UK), 1% 200 mM L-glutammine (Gibco, Paisley, UK), 1% MEM non-essential amino acid solution (Gibco, Paisley, UK), and 10% fetal bovine serum (Gibco, Paisley, UK)). HepG2 plates seeded for cytotoxicity screens were treated with compounds 24 h post-seeding. Each compound was tested at 200, 100, 75, 50, 20, 10 and 1 µM; each concentration was assayed in triplicate. Blank wells (no cells), as well as positive (1% v/v Triton X-100, X100, Sigma-Aldrich) and negative (1.25% v/v DMSO or media only) controls, were included in each plate. After addition of compounds, each plate was then incubated for a further 20 h before application of MTT reagent for assessment of compound cytotoxicity (4 h incubation with MTT for a total 24 h cell-drug incubation). The absorbance reading at 570 nm was measured with a POLARstar Omega (BMG Labtech, UK) microtiter plate reader. Dose response curves were generated in GraphPad Prism 7.02 based on the corrected average absorbance of the three replicates for each concentration point.

S. mansoni miracidia = assay: Miracidia to sporocyst transformation screens; format: cell-based, Schistosoma mansoni; conditions: 10 µM, 48 h
Method: Following hatching of S. mansoni eggs, miracidia were incubated on ice for 15 min and then centrifuged at 700 x g for 5 min at 4°C. The miracidia pellet was then re-suspended in 5 ml of Chernin's balanced salt solution (CBSS), subjected to pelleting and two subsequent washes (all at 700 x g for 5 min at 4°C). Afterwards, the supernatant was carefully removed with a serological pipette and the miracidia-enriched pellet was resuspended with CBSS supplemented with 1 mg/ml each of glucose and trehalose and 500 µl of Penicillin-Streptomycin (containing 10,000 units penicillin and 10 mg streptomycin/ml, P4333, Sigma-Aldrich). In preparation for the screens, CBSS (250 µl) was aliquoted to each well of a 24-well plate followed by addition of each compound in DMSO (1 mM concentration in 1% DMSO) or DMSO alone (1%, negative control). Next, approximately 20-25 miracidia (in 250 µl of CBSS) were aliquoted to each well. […] Both preliminary and secondary screens were performed in duplicate on two separate occasions (two independent biological replicates). Miracidia were incubated for 48 h at 26°C before being evaluated using an Olympus inverted light microscope for morphological and behavioural changes differing from the control wells. Dead, partially transformed and fully transformed miracidia were enumerated in the DMSO control and the assay plates as previously described, [23], [59]. […] Absence of ciliated plates attached to the surface of the parasite and formation of sporocyst tegument defined the so-called “fully transformed” parasites.

S. mansoni adult worms = assay: Adult worm screens (WormassayGP2 motility, egg count); format: cell-based, Schistosoma mansoni; conditions: 72 h; for adult worm egg production / adult worm motility compared to compound 7: 12.5 µM
Method: For compound screening, adult worms (three worm pairs/well for compound 7 and the hit compounds of set two; one worm pair/well for the hit compounds of set three) were transferred into wells of a 48-well tissue culture plate containing 1 ml of adult worm media. Adult worms were treated with compounds previously identified as hits at 10 µM on 72 h cultured schistosomula. Worms were dosed with an appropriate volume of 10 mM stock solution of each compound (in DMSO) to have a concentration range of 50 – 6.25 µM (up to 0.5% DMSO, primary screen of compound 7). Secondary screens were performed on the structural analogues of compound 7 (only the schistosomula hits at 10 µM) at a single concentration (12.5 µM) and compared to the same concentration of the parental compound (included in the screen as reference). DMSO (0.5%) and praziquantel (10 µM in 0.5% DMSO) were also included as negative and positive control treatments (both primary and secondary screens). Treated adult worms were incubated for 72 h in a humidified environment at 5% CO 2 at 37°C. Parasite motility after drug treatment was assessed by a digital image processing-based system (WormassayGP2, see Software availability) modified after Wormassay, [56], [57]. Egg production was assessed according to the methodology described by Edwards et al..

S. mansoni schistosomula = assay: Schistosomula screens (Roboworm, phenotype and motility); format: cell-based, Schistosoma mansoni; conditions: 72 h; for EC50: Schistosoma mansoni; for anti-schistosomula activity (hit on phenotype and motility): 50 µM
Method: Anthelmintic activity on the schistosomula stage of S. mansoni was evaluated using Roboworm, an integrated high-throughput, high content image analysis platform originally developed by Paveley et al. and subsequently used by our research group as previously described, [28], [50], [51]. Alternatively, the computer application Worminator can be used to assess motion of microscopic parasites such as the schistosomula stage of S. mansoni. Compounds (as single concentration or two-fold titrations) were prepared for screening in a 384-well plate (PerkinElmer, MA, USA), where solutions (1.6 mM, 0.5 μl) were wet stamped using the Biomek NX ^P liquid handling platform into Basch medium (20 μl). Negative (0.625% DMSO) and positive (Auranofin - AUR - at 10 µM final concentration in 0.625% DMSO) control wells were similarly prepared. Mechanically transformed schistosomula (about 120 parasites in 60 μl of Basch medium) were distributed into each treated well using a WellMate (Thermo Scientific, Loughborough, UK). Schistosomula/compound co-cultures were then incubated at 37°C for 72 h in a humidified atmosphere containing 5% CO 2. At 72 h, parasite/compound co-cultures were resuspended and tissue culture plates were imaged under the same conditions (37°C for 72 h in a humidified atmosphere containing 5% CO 2) using an ImageXpressXL high content imager (Molecular Devices, UK) with subsequent images processed for phenotype and motility as previously reported. Plate analysis returned a phenotype and motility score for each well and any scores below -0.15 and -0.35 (defined threshold anti-schistosomula values for phenotype and motility scores, respectively) defined a condition displaying anti-schistosomula activity. Compound screens were assessed based on the Z´ values (derived from the means and standard deviations of positive and negative controls) and those equal to or above 0.3 for both phenotype and motility were considered successful.
Phenotype and motility scores of each titration were used to generate dose response curves in GraphPad Prism 7.02 based on the corrected average score of the three replicates for each data point.

[2] = system: schistosomula and adult schistosomes; set-up: method as in PMID 31730617; conditions: SGC collection tested by the authors' laboratory; cited from earlier work
HepG2 cells = assay: MTT cytotoxicity assay on HepG2 cells; format: cell-based, Human; conditions: dose response titration
Method: as §1

[3] = average of phenotype and motility metrics, read-out: Schistosomula EC50 Average
[4] = dose response titrations (10 - 0.625 µM), read-out: Schistosomula EC50 Motility
[5] = dose response titrations (10 - 0.625 µM), read-out: Schistosomula EC50 Phenotype

| SMILES | CC50 at 24 h [1] | effect on miracidia (S. mansoni miracidia) | EC50 (S. mansoni schistosomula; [3]) | EC50 (S. mansoni schistosomula; [4]) | EC50 (S. mansoni schistosomula; [5]) | activity on schistosomula and adult schistosomes [2] | also measured |
| --- | --- | --- | --- | --- | --- | --- | --- |
| Cc1ccc(Nc2nc(N3CCNCC3)nc(N3CCOCC3)n2)cc1 [Compound 15] | 23.9 µM | all readily killed miracidia except for compounds 15 and 16 | 1.44 µM | 1.79 µM | 1.09 µM | – | adult worm egg production (S. mansoni adult worms): reducing egg production similarly to compound 7; adult worm motility compared to compound 7 (S. mansoni adult worms): more potent than the original hit compound |
| c1ccc(CNc2nc(Nc3ccccc3)nc(N3CCNCC3)n2)cc1 [Compound 12] | 11 µM | readily killed miracidia | 4.49 µM | 4.41 µM | 4.57 µM | – | adult worm egg production (S. mansoni adult worms): reducing egg production similarly to compound 7; adult worm motility compared to compound 7 (S. mansoni adult worms): more potent than the original hit compound |
| O=S(=O)(c1ccc(Cl)cc1)N1CCN(c2nc(N3CCCCC3)nc(N3CCCCC3)n2)CC1 [Compound 18] | – | – | > 50 µM | > 50 µM | > 50 µM | – | – |
| C1CCN(c2nc(N3CCCC3)nc(N3CCNCC3)n2)C1 [Compound 17] | – | – | – | > 10 µM | > 10 µM | – | anti-schistosomula activity (hit on phenotype and motility) (S. mansoni schistosomula): active at the highest concentration |
| O=C(c1ccc(Cl)cc1)N1CCN(c2nc(N3CCCCC3)nc(N3CCCCC3)n2)CC1 [Compound 19] | – | – | > 50 µM | > 50 µM | > 50 µM | – | – |
| COc1cc(C(=O)N2CC[C@@H](O)[C@@H](N)C2)cc2nc(-c3cc4ccccc4n3CC3CC3)n(C)c12 [GSK484] | – | – | – | – | – | potent activities | – |
| CCN(C(=O)CO)[C@H]1CN(/C(=N\C#N)Nc2cccc(OC(F)F)c2)N=C1c1ccc(Cl)c(Cl)c1 [BAY-598] | – | – | – | – | – | potent activities | – |
| Cc1ccccc1Nc1nc(Nc2ccccc2C)nc(N2CCNCC2)n1 [Compound 13] | 17.9 µM | readily killed miracidia | 4.76 µM | 4.82 µM | 4.7 µM | – | – |
| CCOC(=O)CCNc1cc(N2CCc3ccccc3CC2)nc(-c2ccccn2)n1 [GSK-J4] | – | – | – | – | – | potent activities | – |
| c1ccc(Nc2nc(N3CCNCC3)nc(N3CCOCC3)n2)cc1 [Compound 22] | 93.5 µM | – | – | 1.64 µM | 2.09 µM | – | anti-schistosomula activity (hit on phenotype and motility) (S. mansoni schistosomula): active at the highest concentration |
| Cc1ccc(Nc2nc(N3CCNCC3)nc(N3CCN(c4ccccc4)CC3)n2)cc1 [Compound 24] | – | readily killed miracidia | – | 1.81 µM | 1.57 µM | – | cytotoxicity on HepG2 cells (in words) (HepG2 cells): showed the highest toxicity; adult worm motility and oviposition (S. mansoni adult worms; 6.25 µM, compared to compound 7): the most potent; adult worm egg production (S. mansoni adult worms): greater potency than compound 7; adult worm motility compared to compound 7 (S. mansoni adult worms): greater potency than compound 7; anti-schistosomula activity (hit on phenotype and motility) (S. mansoni schistosomula): active at the highest concentration |
| CC(C)Oc1ccc(-c2c[nH]cc2CN(C)CCN)cc1 [MS023] | – | – | – | – | – | potent activities | – |
